Source: article PMC9317670, “Temporal and Wash-Out Studies Identify Medicines for Malaria Venture Pathogen Box Compounds with Fast-Acting Activity against Both Trypanosoma cruzi and Trypanosoma brucei” (Microorganisms, 2022)
Like-named read-outs stand apart in the source and are kept apart here.

Tests used:
[1] = test system: T. cruzi Tulahuen strain parasites in 3T3 host cells; test: T. cruzi 48 h image-based assay; assay type: cell-based, Trypanosoma cruzi; settings: for Emax % (T. cruzi) / IC50 / Emax: 48 h; for IC50: read-out: IC50 (T. cruzi); for SI (T. cruzi) 3T3: selectivity index in relation to 3T3 host cells, highest dose 3T3 73 µM; for SI (T. cruzi) HEK: selectivity index in relation to HEK293 cells; for SI (T. cruzi) (HEP): selectivity index in relation to HEPG2 cells; for Emax: read-out: Emax % (T. cruzi) (converted)
[2] = test system: HEK293 cells; test: HEK293 cytotoxicity assay; assay type: cell-based, human; settings: HEK293, 72 h; NA = not active; highest dose 79 µM unless given
[3] = test system: T.b. brucei bloodstream 427 strain parasites; test: T.b. brucei 72 h REDOX-based (resazurin) viability assay; assay type: cell-based, Trypanosoma brucei brucei; settings: for SI (T.b. brucei) HEK: selectivity index in relation to HEK293 cells; for SI (T.b. brucei) (HEP): selectivity index in relation to HEPG2 cells
[4] = test system: T.b. brucei; test: T.b. brucei temporal viability (time-kill) assay, 48 h, PrestoBlue; assay type: cell-based, Trypanosoma brucei brucei; settings: for IC50: read-out: IC50 48 h T.b. brucei
[5] = test system: T.b. brucei; test: T.b. brucei temporal viability (time-kill) assay, 24 h, PrestoBlue; assay type: cell-based, Trypanosoma brucei brucei; settings: for IC50: read-out: IC50 24 h T.b. brucei
Description: Time-kill assays was undertaken as previously described, using the REDOX reagent PrestoBlue® [24]. […] Control compounds were added at the same concentrations at outlined for the resazurin-based assays.

[6] = test system: T. cruzi; test: T. cruzi compound wash off assay (48 h with compound, wash off, 72 h without); assay type: cell-based, Trypanosoma cruzi; settings: T. cruzi; for IC50: read-out: IC50 Wash Off; for Fold Change of IC50, wash off vs 48 h: IC50 from 48 h incubation to IC50 following wash off and further 72 h
[7] = test system: T. cruzi and T.b. brucei; test: Speed of action and cidality classification from temporal and wash off assays; assay type: cell-based, Trypanosoma cruzi, Trypanosoma brucei brucei; settings: for Speed of Action (FA/SA): TBB = T.b. brucei
[8] = test system: T. cruzi; test: T. cruzi temporal image-based assay, 24 h exposure; assay type: cell-based, Trypanosoma cruzi; settings: for IC50: read-out: IC50 24 h T. cruzi
[9] = 48 h incubation, wash off, further 72 h
[10] = Trypanosoma cruzi, 48 h incubation, wash off, further 72 h
[11] = Trypanosoma cruzi, NA = not active at given concentration

Fold Change of IC50, wash off vs 48 h [6] [fold]	IC50 [6, 10] [µM]	SMILES	Emax % (T. cruzi) [1] [%]	IC50 [1] [µM]	SI (T. cruzi) 3T3 [1]	SI (T. cruzi) HEK [1]	IC50 [2] [µM]	Emax % (T.b. brucei) ([3]; 72 h) [%]	IC50 ([3]; 72 h) [µM]	SI (T.b. brucei) HEK [3]	SI (T. cruzi) (HEP) [1]	Speed of Action (FA/SA) ([7]; TC = T. cruzi)	SI (T.b. brucei) (HEP) [3]	Emax ([1]; Trypanosoma cruzi, TULAHUEN) [%]	IC50 ([1]; Trypanosoma cruzi, TULAHUEN) [µM]	also measured
		c1ccc(Oc2ccc(-c3cc(N4CCNCC4)[nH]n3)cc2)cc1 [MMV 687706]	99	11 ± 0.205	>6.6	1.5 (NT)	16.2 ± 5.2	99	2.2 ± 0.0028	7.4						
1.2		CN1CCN(S(=O)(=O)c2ccc(-c3ccc4c(Nc5ncc(Cl)cn5)ccnc4c3)cc2)CC1 [MMV 688283]	100	6.6 ± 1.2	>11	>12 (>12)		99	7.6 ± 0.27	>10 (>10)	>12 (>12)	SA (TC)	>10 (>10)			Emax % (T. cruzi) ([1]; listed as MMV688283): > 95%; Emax 48 h T.b. brucei [4]: 96%; IC50 [4]: 6.2 ± 0.45 µM; Emax 24 h T.b. brucei [5]: 94%; IC50 [5]: 7.8 ± 0.32 µM; Emax Wash Off [6, 9]: 100%; IC50 [6, 9]: 7.6 ± 1.5 µM
		N=C(N)c1ccc(-c2cc(-c3ccccc3)on2)cc1 [MMV 688514]	100	4.9 ± 0.16	2.7	1.9 (NT)	9.1 ± 0.46	99	1.5 ± 0.027	6.0						SI (T. cruzi) HEK ([1]; listed as MMV688514): < 10; SI (T.b. brucei) HEK ([3]; listed as MMV688514): < 10
0.60	0.35 ± 0.014	CC1CS(=O)(=O)CCN1/N=C/c1ccc([N+](=O)[O-])o1 (stereo not shown) [Nifurtimox, reference compound]			>149							FA (Fast-acting (FA) = IC50 value can be determined following 24 h incubation, <10-fold difference in the IC50 value from 24 to 72 h)		100	0.85 ± 0.048	IC50 [8, 11]: 1.03 ± 0.076 µM
0.36	0.0018 ± 7.8e-05	CC[C@@H]([C@H](C)O)n1ncn(-c2ccc(N3CCN(c4ccc(OC[C@@H]5CO[C@@](Cn6cncn6)(c6ccc(F)cc6F)C5)cc4)CC3)cc2)c1=O [Posaconazole, reference compound]	77		>333							SA (Slow-acting (SA) = IC50 value unable to be determined following 24 h incubation (no plateau of activity, or plateau of activity is <80% or IC50 value < 10 µM), or >10-fold difference in the IC50 value from 24 to 72 h)		73	0.0055 ± 4.1e-06	Emax [6, 10]: 100%; Cidal / Static / Not efficacious ([7]; from wash off and 48 h Emax, TC = T. cruzi): Not efficacious (TC); IC50 24 h T. cruzi ([8]; NA = not active at given concentration): NA at 1 µM

SMILES	Fold Change of IC50, wash off vs 48 h [6] [fold]	IC50 [6, 10] [µM]	Emax % (T. cruzi) [1] [%]	IC50 [1] [µM]	SI (T. cruzi) 3T3 [1]	SI (T. cruzi) HEK [1]	IC50 [2] [µM]	Emax % (T.b. brucei) ([3]; 72 h) [%]	IC50 ([3]; 72 h) [µM]	SI (T.b. brucei) HEK [3]	SI (T. cruzi) (HEP) [1]	Speed of Action (FA/SA) ([7]; TC = T. cruzi)	SI (T.b. brucei) (HEP) [3]	Emax ([1]; Trypanosoma cruzi, TULAHUEN) [%]	IC50 ([1]; Trypanosoma cruzi, TULAHUEN) [µM]	also measured
Cc1cc(C2=NOC(c3cc(Cl)c(F)c(Cl)c3)(C(F)(F)F)C2)ccc1C(=O)NCc1ccc2c(c1)C(C)(C)OB2O (stereo not shown) [MMV 687776]	1.0		100	1.6 ± 0.38	>46	8.1	13 ± 1.6	99	4.3 ± 1.3	3.0	> 50	SA (TC)	> 18			Emax % (T. cruzi) ([1]; listed as MMV687776): > 95%; SI (T. cruzi) 3T3 ([1]; listed as MMV687776): > 46; Emax 48 h T.b. brucei [4]: 99%; IC50 [4]: 4.04 ± 1.78 µM; Emax 24 h T.b. brucei [5]: 89%; IC50 [5]: 5.35 ± 0.103 µM; Emax Wash Off [6, 9]: 100%; IC50 [6, 9]: 1.6 ± 0.064 µM
CC1CCCCN1C(=O)NCCc1coc(-c2ccc(F)cc2)n1 (stereo not shown) [MMV 688797]		0.38 ± 0.056			>143	>154 (>154)				>814 (>814)	>154 (>154)	FA (Fast-acting (FA) = IC50 value can be determined following 24 h incubation, <10-fold difference in the IC50 value from 24 to 72 h)	>814 (>814)	100	0.51 ± 0.11	Emax ([4]; Trypanosoma brucei, read-out: Emax 48 h T.b. brucei (converted)): 99%; IC50 ([4]; Trypanosoma brucei): 0.1 ± 0.0062 µM; Emax ([5]; Trypanosoma brucei, read-out: Emax 24 h T.b. brucei (converted)): 99%; IC50 ([5]; Trypanosoma brucei): 0.15 ± 0.029 µM; Speed of Action (Table 5) ([7]; prioritised compounds, Fast/Slow): Fast; Emax ([3]; Trypanosoma brucei, 72 h): 99%; IC50 ([3]; Trypanosoma brucei, 72 h): 0.097 ± 0.0021 µM; Emax ([8]; Trypanosoma cruzi): 86%; IC50 [8, 11]: 0.89 ± 0.135 µM
